Assay results published in patent publication EP1600504A1, “Control of transglutaminase catalyzed protein modification by selective irreversible transglutaminase inhibitors” (N-Zyme BioTec GmbH, priority 2004, dated 2005).
Blank lines part the entries; values can stand above or below the molecule they belong to. Peptide text beside a SMILES is read from it. * marks the point of attachment. Cbz = O=C(OCc1ccccc1)*; Acryloyl = C=CC(=O)*; ClAc = O=C(CCl)*

How the values were obtained:
Transglutaminase [1] = assay: Transglutaminase-catalysed labelling reaction stopped by inhibitor, SDS-PAGE fluorescence (Beispiel 1); assay type: biochemical; details: Zielprotein N,N-Dimethylcasein, stopped after 2, 10 and 20 min, large excess of unbound dye present, transglutaminase only given in an image table
Method: (§1) Alle nachfolgend beschriebenen Experimente wurden nach dem gleichen Standardprotokoll durchgeführt. Dabei werden das jeweilige Zielprotein und das farbstofftragende amin- oder glutaminhaltige Substrat in einem geeigneten Puffer vorgelegt und für 5 Min. auf 37°C temperiert. Anschließend wird durch Zugabe von Transglutaminase die Reaktion gestartet. Nach variierenden Inkubationszeiten, durch die jeweils verschiedene Markierungsgrade erreicht werden, wird durch Zugabe eines Inhibitors die Transglutaminase vollständig und irreversibel inaktiviert (Reaktionsabbruch 1). In Kontrollexperimenten wird die Markierungsreaktion durch Abtrennung des ungebundenen, farbstofftragenden Substrates unterbrochen (Reaktionsabbruch 2). Die Abtrennung des ungebundenen Farbstoffes erfolgt unter Normaldruck über eine PD-10-Säule (Amersham Biosciences). Dieses allgemein einsetzbare Verfahren zur schnellen Abtrennung kleiner Moleküle von Makromolekülen wie Proteinen basiert auf dem Prinzip der Gelpermeationschromatographie und kann als das vorteilhafteste Verfahren zur Reaktionskontrolle nach dem Stand der Technik angesehen werden. Andere Verfahren, mit denen die weitere katalytische Markierungsreaktion abgebrochen werden könnte, sind weniger geeignet oder nicht allgemein einsetzbar (z. B. thermische, unspezifische chemische oder affinitätschromatographische Methoden). […]

Transglutaminase [2] = assay: Transglutaminase-catalysed labelling reaction stopped by inhibitor, SDS-PAGE fluorescence (Beispiel 3); assay type: biochemical
Method: as §1

[3] = molecular target: T1, bakterielle Transglutaminase (Streptomyces mobaraensis, UniProt P81453); assay: Labelling of recombinant hIRS1-p30-N-K stopped by inhibitor, SDS-PAGE fluorescence (Beispiel 6); assay type: biochemical
T1 sequence (P81453 77-407): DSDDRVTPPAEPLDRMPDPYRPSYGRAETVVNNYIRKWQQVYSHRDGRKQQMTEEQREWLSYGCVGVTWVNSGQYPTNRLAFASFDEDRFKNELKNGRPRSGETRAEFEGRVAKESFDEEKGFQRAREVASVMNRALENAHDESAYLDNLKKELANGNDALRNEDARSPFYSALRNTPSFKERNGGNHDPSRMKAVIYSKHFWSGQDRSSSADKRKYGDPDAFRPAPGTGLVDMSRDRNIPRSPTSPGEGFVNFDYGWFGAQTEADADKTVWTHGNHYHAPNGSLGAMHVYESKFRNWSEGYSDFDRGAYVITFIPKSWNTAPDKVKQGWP
Method: as §1

[4] = molecular target: T2, Meerschweinchenlebertransglutaminase (Cavia cutleri, UniProt P08587); assay: Labelling of recombinant hLeptin stopped by inhibitor, RP-HPLC (Beispiel 7); assay type: biochemical, Meerschweinchen
T2 sequence (P08587 2-690 limits assumed): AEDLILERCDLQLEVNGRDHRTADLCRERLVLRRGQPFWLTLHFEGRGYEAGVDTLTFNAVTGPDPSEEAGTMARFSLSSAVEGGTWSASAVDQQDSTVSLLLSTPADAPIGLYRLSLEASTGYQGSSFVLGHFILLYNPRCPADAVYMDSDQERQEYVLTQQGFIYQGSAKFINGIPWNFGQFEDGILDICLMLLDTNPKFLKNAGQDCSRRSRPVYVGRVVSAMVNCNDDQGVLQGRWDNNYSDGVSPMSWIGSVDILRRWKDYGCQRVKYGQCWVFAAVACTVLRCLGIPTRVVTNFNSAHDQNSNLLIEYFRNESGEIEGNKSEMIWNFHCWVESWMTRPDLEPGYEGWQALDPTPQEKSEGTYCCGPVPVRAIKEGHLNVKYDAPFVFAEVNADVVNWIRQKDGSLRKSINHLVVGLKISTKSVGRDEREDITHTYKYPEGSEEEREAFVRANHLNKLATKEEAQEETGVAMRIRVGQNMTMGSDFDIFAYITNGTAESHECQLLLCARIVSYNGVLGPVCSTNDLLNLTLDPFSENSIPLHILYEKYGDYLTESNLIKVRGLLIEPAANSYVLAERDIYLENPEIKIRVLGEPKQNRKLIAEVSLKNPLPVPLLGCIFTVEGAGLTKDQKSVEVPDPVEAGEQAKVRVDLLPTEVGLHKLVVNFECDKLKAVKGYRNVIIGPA
Method: as §1, with “Methoden). Die Gelpermeationschromatographie wurde jeweils so schnell wie technisch machbar durchgeführt. Dazu wird auf die vorkonditionierte PD-10-Säule 2,5 ml des Reaktionsvolumens aufgetragen und die Lösung vollständig in das Trennmaterial eingebracht. Anschließend wird das Protein mit 3,5 ml Puffer eluiert. Die niedermolekularen Substanzen verbleiben auf der Säule. Der Gesamtprozess benötigt eine Zeitspanne von mindestens 3 Minuten. Während dieser Zeit kann Transglutaminase weiter auf das Zielprotein einwirken.” for “Methoden).”

[5] = molecular target: T1, bakterielle Transglutaminase; assay: Labelling of recombinant Concanavalin A stopped by inhibitor, SDS-PAGE fluorescence (Beispiel 4); assay type: biochemical; details: rekombinantes Concanavalin A, stopped after 2 and 5 min, then 30 min RT
Method: as §1

Transglutaminase [6] = assay: Transglutaminase-catalysed labelling reaction stopped by inhibitor, SDS-PAGE fluorescence (Beispiel 5); assay type: biochemical; details: stopped after 2, 5 and 10 min, then 30 min RT
Method: as §1

Structure (SMILES): CC[C@H](C)[C@H](NC(=O)[C@H](CCC(N)=O)NC(=O)[C@H](CCC(=O)C[S+](C)C)NC(=O)OC(C)(C)C)C(=O)N[C@H](C(=O)OC)C(C)C [Boc-SON-Gln-Ile-Val-OH, N^α-tert.-Butyloxycarbonyl-L-(6-dimethylsulfonium-5-oxonorleucinyl)-L-glutaminyl-L-isoleucinyl-L-valinmethylester]
weitere katalytische Reaktion nach Zugabe des Inhibitors (Transglutaminase [1]): Eine weitere katalytische Reaktion findet nach Zugabe des Inhibitors nicht statt

weiteres Labeling des Zielproteins nach Abtrennung des Inhibitors (Transglutaminase [2]; inhibitor removed by gel permeation chromatography, fresh unbound dye added, 30 min RT): kein weiteres Labeling des Zielproteins | Markierungsreaktion nach Zugabe des Inhibitors (Transglutaminase [2]; stopped after 5 min, sample directly after inhibitor addition): wird die Reaktion gestoppt
Structure (SMILES): [N-]=[N+]=CC(=O)CC[C@H](NC(=O)OCc1ccccc1)C(=O)NCC(=O)O [Z-DON-Gly-OH, N^α-Benzyloxycarbonyl-L-(6-diazo-5-oxonorleucinyl)glycin]

Structure (SMILES): COC(=O)[C@H](Cc1ccccc1)NC(=O)[C@H](CCC(=O)C=[N+]=[N-])NC(=O)OCc1ccccc1 [Z-DON-Phe-OMe, N^α-Benzyloxycarbonyl-L-(6-diazo-5-oxonorleucinyl)-L-phenylalaninmethylester]
weitere Modifikation des Zielproteins nach Abtrennung von Farbstoff und Inhibitor ([3]; dye and inhibitor removed, kept at RT 30 min, 1 h, 2 h, 4 h): keine weitere Modifikation des Zielproteins | Inhibition der Transglutaminase ([3]; stopped after 5 min): vollständige und irreversible Inhibition der Transglutaminase

Structure (SMILES): C=CC(=O)NCCCC[C@H](NC(=O)OCc1ccccc1)C(=O)NCC(=O)O [Z-Lys(Acryloylamid)-Gly-OH, N^α-Benzyloxycarbonyl-L-lysinyl(ε-acryloyl)glycin] (Cbz-Lys(Acryloyl)-Gly-OH)
Inaktivierung der Meerschweinchenlebertransglutaminase ([4]; stopped after 5 min): inaktiviert Meerschweinchenlebertransglutaminase vollständig | weitere Labeling- und Quervernetzungsreaktionen ([4]; stopped after 5 min, then 30 and 60 min RT): keine weitere Labeling- und Quervernetzungsreaktionen | weitere enzymatische Reaktionen nach Lagerung ([4]; storage 10 days at -20°C, then one hour RT): keine weiteren enzymatischen Reaktionen mehr

weitere Markierungsreaktion nach Inhibitorzugabe [5]: keine weitere Markierungsreaktion mehr
Structure (SMILES): COC(=O)[C@H](Cc1ccccc1)NC(=O)[C@H](CCC(=O)C[S+](C)C)NC(=O)OCc1ccccc1 [Z-SON-Phe-OMe, Nα-Benzyloxycarbonyl-L-(6-dimethylsulfonium-5-oxonorleucinyl)phenylalaninmethylester]

Structure (SMILES): O=C(O)CNC(=O)[C@H](COC(=O)CCl)NC(=O)OCc1ccccc1 [Z-Ser(OAcCl)-Gly-OH, N^α-Benzyloxycarbonyl-L-serinyl(O-chloracetyl)glycin] (Cbz-Ser(ClAc)-Gly-OH)
weitere Markierungsreaktionen nach Inhibitorzugabe (Transglutaminase [6]): keine weiteren Markierungsreaktionen mehr
